Experimental data: ChEMBL document CHEMBL1123224, “Mechanism of action of the marine natural product stypoldione: evidence for reaction with sulfhydryl groups” (1986)

What was measured:
Type in all cases: functional
[1] = species: Bos taurus; test: Carboxymethylation of bovine brain tubulin pre-incubated with 8.6 mol compound per mol tubulin
[2] = species: Bos taurus; test: Carboxymethylation of bovine brain tubulin pre-incubated with 17 mol compound per mol tubulin
[3] = species: Bos taurus; test: Carboxymethylation of bovine brain tubulin pre-incubated with 69 mol compound per mol tubulin
[4] = species: Bos taurus; test: Carboxymethylation of bovine brain tubulin pre-incubated with 0 mol compound per mol tubulin
[5] = species: Bos taurus; test: Carboxymethylation of bovine brain tubulin pre-incubated with 34 mol compound per mol tubulin
[6] = species: Bos taurus; test: Carboxymethylation of bovine brain tubulin pre-incubated with 86 mol compound per mol tubulin

For `CC1=CC(=O)C(=O)C2=C1O[C@@]1(C2)[C@@H](C)CC[C@@H]2[C@@]3(C)CC[C@H](O)C(C)(C)C3CC[C@]21C` (stereo partly specified) [STYPOLDIONE], the “Ratio_[3H]:tubulin” value [1] was 22, the “Ratio_[3H]:tubulin” value [2] was 16 and the “Ratio_[3H]:tubulin” value [3] was 4.8. For the same compound, the “Ratio_[3H]:tubulin” value [4] was 20, the “Ratio_[3H]:tubulin” value [5] was 12 and the “Ratio_[3H]:tubulin” value [6] was 4.3.
